Test results as given in patent US20170071976A1, “PHARMACEUTICAL SOLUTION HAVING ANTI-TUMOR EFFECT-ENHANCING AND TOXICITY-REDUCING EFFECT, AND PHARMACEUTICAL COMPOSITION COMPRISING SAME” (priority 2014, published 2017).

How the values were obtained:
Experiment in all cases: MTT assay: in vitro inhibition of growth by deuterium oxide
Format in all cases: cell-based, human
[1] = system: Caov-3 ovarian cancer cell line; conditions: expressed in v/v %
Description: (§1) Studies of in vitro inhibition of growth of human tumor cells by deuterium oxide, by the MTT (3-(4,5-dimethylthiazol-2-yl)-2,5-diphenyltetrazolium bromide) assay
(§2) 1. A bottle of cells that had been cultured for 3 to 4 days and were in the exponential phase was taken, a suitable amount of 0.25% Trypsin-EDTA solution was added thereto to detach the cells from the wall, and the cells were suspended in 10 ml RPMI 1640 medium containing 10% FBS. 2. The cells were counted on a hemocytometer, and generally viable cells should be not less than 97%. 3. The cell suspension was diluted with a complete medium to prepare a suspension containing 1×10^4 cells/ml. 4. To each well of a 12-well culture plate, 300 μl cell suspension was added. The addition of cells should be finished within 4 hours. The plate was placed in an incubator at 37° C. and 5% CO2 for 24 hours. 5. Powdery RPMI Medium 1640 (Gibco, USA, Cat#: 31800-022) was dissolved in deuterium oxide (provided by Cambridge Isotope Laboratories, Inc. (US)) to prepare a cell culture medium (unless particularly specified, all culture media used in the Examples hereinafter were prepared from powdery RPMI Medium 1640 and deuterium oxide) at a concentration shown in Table 1, which was added into the cell culture plate. 6. The cell culture plate was incubated for 3 days in an incubator at 37° C., 5% CO2 and 100% humidity. 7. A solution of 1 mg/ml MTT was prepared in a serum-free RPMI1640 medium, added to the plate at 200 μl/well, and incubated at 37° C. for 4 hours, to allow MTT to be reduced to formazan. 8. The supernatant was removed by pipetting, 200 μl DMSO was added to dissolve formazan, and the solution was well mixed on a platform shaker. 9. Absorbance of each well was measured on an ELISA reader with a detection wavelength of 570 nm and a reference wavelength of 450 nm. 10. The assay was repeated one more time.
(§3) Calculation of results: Inhibition of growth of tumor cells by deuterium oxide was calculated using tumor cells treated with sodium chloride physiological solution as a control group. Inhibition of cell growth was plotted against amounts of deuterium oxide to obtain a dose response curve, from which the half maximal inhibitory concentration (IC50) of deuterium oxide was derived.
(§4) Inhibition of tumor cell growth (%)=(1−OD test/OD control)×100%

[2] = system: U2-OS osteosarcoma cell line
Description: as §1, §2, §3, §4

[3] = system: A549 lung cancer cell line
Description: as §1, §2, §3, §4

[4] = system: NCI-1975 lung cancer cell line
Description: as §1, §2, §3, §4

K562 leukemia cell line = system: K562 leukemia cell line
Description: as §1, §2, §3, §4

[5] = system: HeLa cervical cancer cell line
Description: as §1, §2, §3, §4

[6] = system: PC-3 prostate cancer cell line
Description: as §1, §2, §3, §4

[7] = system: BGC-823 gastric cancer cell line
Description: as §1, §2, §3, §4

[2H]O[2H] [Deuterium oxide] was tested, and the IC10 [1] was 11.51%, the IC50 [1] was 46.83% and the “Inhibition of growth (%)” value ([2]; deuterium oxide 1.2% (v/v)) was −2.81%. The “Inhibition of growth (%)” value ([2]; deuterium oxide 2.5% (v/v)) was 4.20%, the “Inhibition of growth (%)” value ([2]; deuterium oxide 5% (v/v)) was −1.64% and the “Inhibition of growth (%)” value ([2]; deuterium oxide 10% (v/v)) was −8.55%. For the same compound, the “Inhibition of growth (%)” value ([2]; deuterium oxide 20% (v/v)) was −3.12%, the “Inhibition of growth (%)” value ([2]; deuterium oxide 30% (v/v)) was 11.99% and the “Inhibition of growth (%)” value ([2]; deuterium oxide 40% (v/v)) was 10.23%. For the same compound, the “Inhibition of growth (%)” value ([2]; deuterium oxide 50% (v/v)) was 18.21%, the “Inhibition of growth (%)” value ([2]; deuterium oxide 60% (v/v)) was 23.43% and the “Inhibition of growth (%)” value ([2]; deuterium oxide 70% (v/v)) was 29.64%. For the same compound, the “Inhibition of growth (%)” value ([2]; deuterium oxide 80% (v/v)) was 45.84%, the IC10 ([2]; expressed in v/v %) was 24.99% and the IC50 ([2]; expressed in v/v %) was 86.25%. The “Inhibition of growth (%)” value ([3]; deuterium oxide 1.2% (v/v)) was 7.71%, the “Inhibition of growth (%)” value ([3]; deuterium oxide 2.5% (v/v)) was 17.64% and the “Inhibition of growth (%)” value ([3]; deuterium oxide 5% (v/v)) was 18.05%. For the same compound, the “Inhibition of growth (%)” value ([3]; deuterium oxide 10% (v/v)) was 18.88%, the “Inhibition of growth (%)” value ([3]; deuterium oxide 20% (v/v)) was 16.19% and the “Inhibition of growth (%)” value ([3]; deuterium oxide 30% (v/v)) was 27.71%. The “Inhibition of growth (%)” value ([3]; deuterium oxide 40% (v/v)) was 39.37%, the “Inhibition of growth (%)” value ([3]; deuterium oxide 50% (v/v)) was 42.67% and the “Inhibition of growth (%)” value ([3]; deuterium oxide 60% (v/v)) was 55.42%. The “Inhibition of growth (%)” value ([3]; deuterium oxide 70% (v/v)) was 70.88%, the “Inhibition of growth (%)” value ([3]; deuterium oxide 80% (v/v)) was 92.34% and the IC10 ([3]; expressed in v/v %) was 1.52%. For the same compound, the IC50 ([3]; expressed in v/v %) was 55.32%, the “Inhibition of growth (%)” value ([4]; deuterium oxide 1.2% (v/v)) was 0.84% and the “Inhibition of growth (%)” value ([4]; deuterium oxide 2.5% (v/v)) was −8.29%. The “Inhibition of growth (%)” value ([4]; deuterium oxide 5% (v/v)) was −7.44%, the “Inhibition of growth (%)” value ([4]; deuterium oxide 10% (v/v)) was −4.95% and the “Inhibition of growth (%)” value ([4]; deuterium oxide 20% (v/v)) was 5.60%. The “Inhibition of growth (%)” value ([4]; deuterium oxide 30% (v/v)) was 6.66%, the “Inhibition of growth (%)” value ([4]; deuterium oxide 40% (v/v)) was 24.03% and the “Inhibition of growth (%)” value ([4]; deuterium oxide 50% (v/v)) was 39.10%. For the same compound, the “Inhibition of growth (%)” value ([4]; deuterium oxide 60% (v/v)) was 51.93%, the “Inhibition of growth (%)” value ([4]; deuterium oxide 70% (v/v)) was 79.65% and the “Inhibition of growth (%)” value ([4]; deuterium oxide 80% (v/v)) was 87.23%. The IC10 ([4]; expressed in v/v %) was 27.00%, the IC50 ([4]; expressed in v/v %) was 62.61% and the “Inhibition of growth (%)” value (K562 leukemia cell line; deuterium oxide 1.2% (v/v)) was −2.47%. The “Inhibition of growth (%)” value (K562 leukemia cell line; deuterium oxide 2.5% (v/v)) was 6.51%, the “Inhibition of growth (%)” value (K562 leukemia cell line; deuterium oxide 5% (v/v)) was 4.23% and the “Inhibition of growth (%)” value (K562 leukemia cell line; deuterium oxide 10% (v/v)) was −7.60%. For the same compound, the “Inhibition of growth (%)” value (K562 leukemia cell line; deuterium oxide 20% (v/v)) was 9.10%, the “Inhibition of growth (%)” value (K562 leukemia cell line; deuterium oxide 30% (v/v)) was 22.72% and the “Inhibition of growth (%)” value (K562 leukemia cell line; deuterium oxide 40% (v/v)) was 39.51%. The “Inhibition of growth (%)” value (K562 leukemia cell line; deuterium oxide 50% (v/v)) was 55.51%, the “Inhibition of growth (%)” value (K562 leukemia cell line; deuterium oxide 60% (v/v)) was 70.13% and the “Inhibition of growth (%)” value (K562 leukemia cell line; deuterium oxide 70% (v/v)) was 88.59%. For the same compound, the “Inhibition of growth (%)” value (K562 leukemia cell line; deuterium oxide 80% (v/v)) was 93.24%, the IC10 (K562 leukemia cell line; expressed in v/v %) was 14.83% and the IC50 (K562 leukemia cell line; expressed in v/v %) was 51.72%. For the same compound, the “Inhibition of growth (%)” value ([5]; deuterium oxide 1.2% (v/v)) was 12.11%, the “Inhibition of growth (%)” value ([5]; deuterium oxide 2.5% (v/v)) was 14.44% and the “Inhibition of growth (%)” value ([5]; deuterium oxide 5% (v/v)) was 16.25%. For the same compound, the “Inhibition of growth (%)” value ([5]; deuterium oxide 10% (v/v)) was 28.87%, the “Inhibition of growth (%)” value ([5]; deuterium oxide 20% (v/v)) was 36.12% and the “Inhibition of growth (%)” value ([5]; deuterium oxide 30% (v/v)) was 45.41%. The “Inhibition of growth (%)” value ([5]; deuterium oxide 40% (v/v)) was 58.26%, the “Inhibition of growth (%)” value ([5]; deuterium oxide 50% (v/v)) was 65.63% and the “Inhibition of growth (%)” value ([5]; deuterium oxide 60% (v/v)) was 73.32%. For the same compound, the “Inhibition of growth (%)” value ([5]; deuterium oxide 70% (v/v)) was 85.82%, the “Inhibition of growth (%)” value ([5]; deuterium oxide 80% (v/v)) was 90.11% and the IC10 ([5]; expressed in v/v %) was 1.8%. For the same compound, the IC50 ([5]; expressed in v/v %) was 68.33%, the “Inhibition of growth (%)” value ([6]; deuterium oxide 1.2% (v/v)) was 0.46% and the “Inhibition of growth (%)” value ([6]; deuterium oxide 2.5% (v/v)) was 4.33%. The “Inhibition of growth (%)” value ([6]; deuterium oxide 5% (v/v)) was −2.50%, the “Inhibition of growth (%)” value ([6]; deuterium oxide 10% (v/v)) was 8.81% and the “Inhibition of growth (%)” value ([6]; deuterium oxide 20% (v/v)) was −16.46%. The “Inhibition of growth (%)” value ([6]; deuterium oxide 30% (v/v)) was 26.67%, the “Inhibition of growth (%)” value ([6]; deuterium oxide 40% (v/v)) was 43.19% and the “Inhibition of growth (%)” value ([6]; deuterium oxide 50% (v/v)) was 59.42%. The “Inhibition of growth (%)” value ([6]; deuterium oxide 60% (v/v)) was 60.84%, the “Inhibition of growth (%)” value ([6]; deuterium oxide 70% (v/v)) was 73.42% and the “Inhibition of growth (%)” value ([6]; deuterium oxide 80% (v/v)) was 87.08%. The IC10 ([6]; expressed in v/v %) was 9.35%, the IC50 ([6]; expressed in v/v %) was 61.34% and the “Inhibition of growth (%)” value ([7]; deuterium oxide 1.2% (v/v)) was 2.74%. The “Inhibition of growth (%)” value ([7]; deuterium oxide 2.5% (v/v)) was 2.15%, the “Inhibition of growth (%)” value ([7]; deuterium oxide 5% (v/v)) was −4.23% and the “Inhibition of growth (%)” value ([7]; deuterium oxide 10% (v/v)) was −3.60%. The “Inhibition of growth (%)” value ([7]; deuterium oxide 20% (v/v)) was 9.09%, the “Inhibition of growth (%)” value ([7]; deuterium oxide 30% (v/v)) was 12.32% and the “Inhibition of growth (%)” value ([7]; deuterium oxide 40% (v/v)) was 7.50%. The “Inhibition of growth (%)” value ([7]; deuterium oxide 50% (v/v)) was 15.99%, the “Inhibition of growth (%)” value ([7]; deuterium oxide 60% (v/v)) was 37.83% and the “Inhibition of growth (%)” value ([7]; deuterium oxide 70% (v/v)) was 61.90%. The “Inhibition of growth (%)” value ([7]; deuterium oxide 80% (v/v)) was 74.57%, the IC10 ([7]; expressed in v/v %) was 26.92% and the IC50 ([7]; expressed in v/v %) was 96.68%.
